Entries after “also recorded” stand apart in the source; their conditions may differ.
Tests used:
[1] = system: mouse aorta; assay: Myography of cannulated mouse aorta; conditions: listed as Egm
From the text: For myography, to test the vascular tone for presense of downstream or off target effects, mouse aorta was mounted and cannulated on a closed system. A physiological buffer (with respect to pH, CO2, and temperature) was circulated through the vessel.

[2] = molecular target: T1, PDE10A2 (Homo sapiens, UniProt Q9Y233); assay: In vitro PDE assay; assay type: biochemical
T1 construct: purchased BPS Biosciences (San Diego, Calif.)
Method in brief: (§1)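 Fluorescence polarization readout: FAM-AMP formed from 100 nM FAM-cAMP binds nano-bead agent (60 min) and is read at ex 485/em 528 nm. Enzyme reactions ran 60 min at room temperature in duplicate, Tris-HCl pH 7.4 buffer with 10 mM MgCl2 and 0.05% Tween 20, compound in 1% final DMSO.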

[3] = molecular target: T2, PDE11A4 (Homo sapiens, UniProt Q9HCR9); assay: In vitro PDE assay; assay type: biochemical
T2 construct: purchased BPS Biosciences (San Diego, Calif.)
Method in brief: as §1

[4] = molecular target: T3, PDE2A (Homo sapiens, UniProt O00408); assay: In vitro PDE assay; assay type: biochemical
T3 construct: purchased BPS Biosciences (San Diego, Calif.)
Method in brief: as §1

[5] = molecular target: T4, PDE8A1 (Homo sapiens, UniProt O60658); assay: In vitro PDE assay; assay type: biochemical
T4 construct: purchased BPS Biosciences (San Diego, Calif.)
Method in brief: as §1

T2 sequence (Q9HCR9 whole entry): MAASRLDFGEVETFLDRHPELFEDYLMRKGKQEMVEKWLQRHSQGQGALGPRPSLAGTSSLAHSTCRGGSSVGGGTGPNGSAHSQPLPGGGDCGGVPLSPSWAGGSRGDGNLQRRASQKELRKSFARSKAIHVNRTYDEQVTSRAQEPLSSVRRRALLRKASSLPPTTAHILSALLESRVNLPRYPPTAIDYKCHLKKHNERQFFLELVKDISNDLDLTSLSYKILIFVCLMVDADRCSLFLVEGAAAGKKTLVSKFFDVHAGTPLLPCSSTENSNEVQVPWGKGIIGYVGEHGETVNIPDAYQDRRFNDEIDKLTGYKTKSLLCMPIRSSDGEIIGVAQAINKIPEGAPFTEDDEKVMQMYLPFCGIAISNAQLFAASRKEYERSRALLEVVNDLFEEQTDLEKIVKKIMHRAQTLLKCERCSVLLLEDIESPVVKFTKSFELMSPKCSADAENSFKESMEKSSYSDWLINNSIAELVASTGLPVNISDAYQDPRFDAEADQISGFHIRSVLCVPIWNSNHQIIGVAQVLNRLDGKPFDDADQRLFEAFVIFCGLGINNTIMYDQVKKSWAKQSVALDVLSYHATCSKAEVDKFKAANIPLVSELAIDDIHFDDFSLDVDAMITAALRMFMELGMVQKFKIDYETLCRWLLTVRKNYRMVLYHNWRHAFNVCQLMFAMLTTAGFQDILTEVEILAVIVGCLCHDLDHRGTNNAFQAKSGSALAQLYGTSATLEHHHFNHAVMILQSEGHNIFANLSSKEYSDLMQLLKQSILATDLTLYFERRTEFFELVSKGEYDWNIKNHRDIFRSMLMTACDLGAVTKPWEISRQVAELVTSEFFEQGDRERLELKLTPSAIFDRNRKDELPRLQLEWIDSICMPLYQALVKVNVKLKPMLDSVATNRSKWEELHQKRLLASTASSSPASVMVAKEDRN
T3 sequence (O00408 whole entry): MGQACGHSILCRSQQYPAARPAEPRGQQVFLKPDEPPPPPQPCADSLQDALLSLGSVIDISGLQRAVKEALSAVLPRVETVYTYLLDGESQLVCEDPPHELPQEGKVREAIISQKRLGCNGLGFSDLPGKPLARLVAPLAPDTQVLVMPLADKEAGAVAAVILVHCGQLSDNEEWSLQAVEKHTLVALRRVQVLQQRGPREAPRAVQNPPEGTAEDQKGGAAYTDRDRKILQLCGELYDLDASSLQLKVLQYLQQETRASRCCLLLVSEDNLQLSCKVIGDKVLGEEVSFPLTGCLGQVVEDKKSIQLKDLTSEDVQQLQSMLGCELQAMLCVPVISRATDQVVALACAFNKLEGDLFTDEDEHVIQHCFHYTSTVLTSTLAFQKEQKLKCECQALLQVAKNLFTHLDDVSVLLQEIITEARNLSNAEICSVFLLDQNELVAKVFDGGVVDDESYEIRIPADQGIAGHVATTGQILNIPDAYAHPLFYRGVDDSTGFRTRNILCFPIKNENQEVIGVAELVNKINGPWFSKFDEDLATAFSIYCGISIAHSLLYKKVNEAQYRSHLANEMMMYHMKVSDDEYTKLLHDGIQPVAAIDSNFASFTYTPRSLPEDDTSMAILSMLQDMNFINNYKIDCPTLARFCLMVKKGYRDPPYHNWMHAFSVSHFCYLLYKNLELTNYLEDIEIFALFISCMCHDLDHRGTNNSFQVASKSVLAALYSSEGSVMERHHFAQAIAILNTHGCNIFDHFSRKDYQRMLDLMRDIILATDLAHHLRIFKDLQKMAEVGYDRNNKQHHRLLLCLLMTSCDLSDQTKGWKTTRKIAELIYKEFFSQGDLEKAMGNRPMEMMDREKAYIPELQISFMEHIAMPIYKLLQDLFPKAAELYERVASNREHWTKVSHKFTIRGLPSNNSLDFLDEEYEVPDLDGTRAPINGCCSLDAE
T1 sequence (Q9Y233 267-1055): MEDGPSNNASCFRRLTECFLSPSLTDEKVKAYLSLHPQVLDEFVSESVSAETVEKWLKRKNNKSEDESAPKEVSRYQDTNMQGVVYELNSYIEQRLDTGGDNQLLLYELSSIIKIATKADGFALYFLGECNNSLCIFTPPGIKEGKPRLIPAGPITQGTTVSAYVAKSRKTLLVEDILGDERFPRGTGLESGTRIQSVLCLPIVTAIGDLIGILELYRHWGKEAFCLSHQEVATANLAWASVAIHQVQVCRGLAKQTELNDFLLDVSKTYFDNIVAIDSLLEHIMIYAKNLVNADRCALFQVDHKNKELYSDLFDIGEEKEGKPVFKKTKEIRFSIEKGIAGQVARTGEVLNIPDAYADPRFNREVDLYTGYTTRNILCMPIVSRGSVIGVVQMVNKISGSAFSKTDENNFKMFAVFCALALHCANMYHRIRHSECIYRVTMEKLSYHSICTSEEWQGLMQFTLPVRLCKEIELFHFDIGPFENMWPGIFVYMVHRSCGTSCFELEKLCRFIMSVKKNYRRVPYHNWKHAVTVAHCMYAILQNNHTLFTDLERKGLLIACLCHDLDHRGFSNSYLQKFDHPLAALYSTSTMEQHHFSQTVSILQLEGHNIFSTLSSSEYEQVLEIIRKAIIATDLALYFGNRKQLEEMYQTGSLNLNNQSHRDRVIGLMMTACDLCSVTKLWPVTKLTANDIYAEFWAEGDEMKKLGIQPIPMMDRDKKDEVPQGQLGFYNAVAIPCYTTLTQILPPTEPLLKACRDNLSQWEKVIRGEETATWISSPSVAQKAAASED
T4 sequence (O60658 whole entry): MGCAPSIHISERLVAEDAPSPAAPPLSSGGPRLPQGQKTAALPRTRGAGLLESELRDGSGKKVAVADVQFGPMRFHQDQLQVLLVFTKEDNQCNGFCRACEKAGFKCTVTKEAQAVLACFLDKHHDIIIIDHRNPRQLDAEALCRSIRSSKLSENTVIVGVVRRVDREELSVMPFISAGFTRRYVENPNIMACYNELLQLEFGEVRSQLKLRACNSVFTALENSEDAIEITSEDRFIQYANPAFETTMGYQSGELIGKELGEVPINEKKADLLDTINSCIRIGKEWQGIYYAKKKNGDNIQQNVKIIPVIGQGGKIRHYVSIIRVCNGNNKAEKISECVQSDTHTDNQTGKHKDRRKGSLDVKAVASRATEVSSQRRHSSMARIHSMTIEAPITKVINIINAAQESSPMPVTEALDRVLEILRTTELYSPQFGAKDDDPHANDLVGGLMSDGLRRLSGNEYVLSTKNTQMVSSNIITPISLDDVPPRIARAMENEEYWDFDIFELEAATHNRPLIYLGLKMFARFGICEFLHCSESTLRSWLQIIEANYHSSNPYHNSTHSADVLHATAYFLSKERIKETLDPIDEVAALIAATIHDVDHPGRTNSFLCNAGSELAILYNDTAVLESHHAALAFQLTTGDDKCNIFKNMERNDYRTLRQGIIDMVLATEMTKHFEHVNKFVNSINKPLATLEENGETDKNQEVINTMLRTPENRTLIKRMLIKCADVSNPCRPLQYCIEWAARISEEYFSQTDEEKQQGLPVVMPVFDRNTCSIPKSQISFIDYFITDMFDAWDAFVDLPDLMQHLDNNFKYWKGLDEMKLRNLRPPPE

| Compound | Vessel diameter after pre-constriction [1] | inhibition at 50 µM [2] [%] | IC50 [3] [µM] | IC50 [4] [µM] | inhibition at 50 µM [5] [%] |
| --- | --- | --- | --- | --- | --- |
| C=C(C)Cn1c(SCC(=O)c2cccs2)nc2sc3c(c2c1=O)CCCC3 [EGM, Eggmanone] | little to no contraction or dilation of the vessel; also recorded: had no effect on the vessel | – | – | – | – |
| C=C(C)Cn1c(SCC(=O)c2cccs2)nc2sc3c(c2c1=O)CCCC3 [Eggmanone, 3-(2-methylallyl)-2-((2-oxo-2-(thiophen-2-yl)ethyl)thio)-5,6,7,8-tetrahydrobenzo[4,5]thieno[2,3-d]pyrimidine-4(3H)-one] | – | < 10 | > 50 | > 50 | < 10 |

Source: patent publication US10329304B2, “Compounds and methods for inhibition of hedgehog signaling and phosphodiesterase” (Vanderbilt University, priority 2014, dated 2019)
